Laboratory results taken from patent US20100056524A1, “Compound” (priority 2008, published 2010).
Structures can show the parent of a compound that is named as a salt.

The molecules below were run against T1, TBK1 (Homo sapiens, UniProt Q9UHD2) (assay: TBK1 protein kinase assay ([γ-33P]ATP, P81 filterplates)). Conditions: 50 μM ATP; read-out: Potency (TBK1 IC50 potency score).
T1 construct: All protein kinases were of human origin and encoded full length proteins, unless indicated otherwise; His6; made in house; host or cells: insect Sf21 cells
T1 sequence (Q9UHD2 1-729): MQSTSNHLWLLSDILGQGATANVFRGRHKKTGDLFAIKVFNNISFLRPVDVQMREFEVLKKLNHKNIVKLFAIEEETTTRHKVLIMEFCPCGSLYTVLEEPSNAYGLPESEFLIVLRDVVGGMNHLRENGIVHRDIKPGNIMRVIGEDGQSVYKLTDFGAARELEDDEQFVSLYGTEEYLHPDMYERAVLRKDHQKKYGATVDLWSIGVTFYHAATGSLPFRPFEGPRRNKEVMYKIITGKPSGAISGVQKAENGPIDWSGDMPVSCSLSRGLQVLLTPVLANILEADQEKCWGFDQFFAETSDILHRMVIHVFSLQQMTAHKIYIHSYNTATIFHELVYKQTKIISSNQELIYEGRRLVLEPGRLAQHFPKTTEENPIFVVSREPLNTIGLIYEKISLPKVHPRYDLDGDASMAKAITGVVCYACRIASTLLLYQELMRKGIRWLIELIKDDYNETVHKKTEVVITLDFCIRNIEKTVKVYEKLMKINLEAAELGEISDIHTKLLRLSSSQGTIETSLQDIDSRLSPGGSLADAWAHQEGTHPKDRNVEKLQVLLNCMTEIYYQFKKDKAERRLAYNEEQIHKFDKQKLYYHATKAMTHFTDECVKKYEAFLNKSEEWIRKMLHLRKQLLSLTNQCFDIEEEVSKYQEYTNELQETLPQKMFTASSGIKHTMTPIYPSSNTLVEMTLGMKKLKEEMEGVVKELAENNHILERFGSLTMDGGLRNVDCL
Type: biochemical
From the text: All protein kinases were of human origin and encoded full length proteins, unless indicated otherwise. They were either expressed as glutathione S-transferase (GST) fusion proteins in Escherichia Coli or as hexahistidine (His6)-tagged proteins in insect Sf21 cells. GST fusion proteins were purified by affinity chromatography on glutathione-Sepharose, and His6-tagged proteins on nickel/nitriloacetate-agarose. The procedures for expressing some of the protein kinases used herein have been detailed previously.^8,9 The following sections outline the DNA vectors synthesised and the procedures used to express and purifying protein kinases that have not been reported previously.
The following kinases were expressed in Sf21 cells: Aurora B and Aurora C, extra-cellular signal-regulated kinase 8 (ERK8), microtubule affinity regulating kinase 3 (MARK3), protein kinase Bα[118-480][S473D], protein kinase Bβ (PKBβ[120-481][S474D], 3-phosphoinositide-dependent protein kinase-1 [52-556]
Assays were performed for 30 min using Multidrop Micro reagent dispensers (Thermo Electron Corporation, Waltham, Mass. 02454, USA) in a 96-well format. The concentration of magnesium acetate in the assays was 10 mM and the [γ-33P] ATP (800 cpm/pmol) was used at 5, 20 or 50 μM as indicated, in order to be at or below the Km for ATP for each enzyme. Protein kinases assayed at 5 μM ATP were: —ERK1, ERK8, PKBα, MARK3, Aurora C. Protein kinases assayed at 20 μM ATP were: —JNK1, PDK1, CHK1, CHK2, CDK2 and Aurora B. Protein kinases assayed at 50 μM ATP were: —MNK2, IKKepsilon and TBK1.
The assays were initiated with MgATP, stopped by addition of 5 μl of 0.5 M orthophosphoric acid and spotted on to P81 filterplates using a unifilter harvester (PerkinElmer, Boston, Mass. 02118, USA). The IC50 values of inhibitors were determined after carrying out assays at 10 different concentrations of each compound.
ERK1 and ERK8 were both assayed against myelin basic protein (MBP, 0.33 mg/ml). MARK3 was assayed against the peptide […] (300 μM), MNK2 against the eIF4E protein (0.5 mg/ml). PKBβ was assayed against the peptide […] (30 μM). TBK1 were assayed against ([…]) (300 μM). The substrates used for other protein kinases were described previously.^8,9
Unless stated otherwise, enzymes were diluted in 50 mM Tris/HCl pH 7.5, 0.1 mM EGTA, 1 mg/ml BSA, 0.1% (v/v) 2-mercaptoethanol and assayed in 50 mM Tris/HCl pH 7.5, 0.1 mM EGTA, 0.1% (v/v) 2-mercaptoethanol.

| Structure (SMILES) | IC50 |
| --- | --- |
| Cc1n[nH]c(C)c1C(=O)NCCCNc1nc(Nc2cccc(F)c2)ncc1C1CC1 [Example 13, 3,5-Dimethyl-1H-pyrazole-4-carboxylic acid {3-[5-cyclopropyl-2-(3-fluoro-phenylamino)-pyrimidin-4-ylamino]-propyl}-amide] | 1000 to 10000 nM |
| O=C(NCCCNc1nc(Nc2cccc(F)c2)ncc1C1CC1)C1CCOC1 (stereo not drawn) [Example 14, Tetrahydro-furan-3-carboxylic acid {3-[5-cyclopropyl-2-(3-fluoro-phenylamino)-pyrimidin-4-ylamino]-propyl}-amide] | < 100 nM |
| O=C(NCCCNc1nc(Nc2cccc(F)c2)ncc1C1CC1)C1CCCO1 (stereo not drawn) [Example 15, Tetrahydro-furan-2-carboxylic acid {3-[5-cyclopropyl-2-(3-fluoro-phenylamino)-pyrimidin-4-ylamino]-propyl}-amide] | 100 to 1000 nM |
| Cn1cccc1C(=O)NCCCNc1nc(Nc2cccc(F)c2)ncc1C1CC1 [Example 16, 1-Methyl-1H-pyrrole-2-carboxylic acid {3-[5-cyclopropyl-2-(3-fluoro-phenylamino)-pyrimidin-4-ylamino]-propyl}-amide] | 100 to 1000 nM |
| O=C(NCCCNc1nc(Nc2cccc(F)c2)ncc1C1CC1)c1ccsc1 [Example 17, Thiophene-3-carboxylic acid {3-[5-cyclopropyl-2-(3-fluoro-phenylamino)-pyrimidin-4-ylamino]-propyl}-amide] | < 100 nM |
| Cn1ccnc1C(=O)NCCCNc1nc(Nc2cccc(F)c2)ncc1C1CC1 [Example 18, 1-Methyl-1H-imidazole-2-carboxylic acid {3-[5-cyclopropyl-2-(3-fluoro-phenylamino)-pyrimidin-4-ylamino]-propyl}-amide] | 1000 to 10000 nM |
| O=C(NCCCNc1nc(Nc2cccc(F)c2)ncc1C1CC1)c1cocn1 [Example 19, Oxazole-4-carboxylic acid {3-[5-cyclopropyl-2-(3-fluoro-phenylamino)-pyrimidin-4-ylamino]-propyl}-amide] | 100 to 1000 nM |
| O=C(NCCCNc1nc(Nc2cccc(F)c2)ncc1C1CC1)C1CCCC1 [Example 22, Cyclopentanecarboxylic acid {3-[5-cyclopropyl-2-(3-fluoro-phenylamino)pyrimidin-4-ylamino]-propyl}-amide] | < 100 nM |
| O=C(CC1CC1)NCCCNc1nc(Nc2cccc(F)c2)ncc1C1CC1 [Example 24, 2-Cyclopropyl-N-{3-[5-cyclopropyl-2-(3-fluoro-phenylamino)-pyrimidin-4-ylamino]-propyl}-acetamide] | < 100 nM |
| O=C(NCCCNc1nc(Nc2cccc(F)c2)ncc1C1CC1)C1CC1 [Example 25, Cyclopropanecarboxylic acid {3-[5-cyclopropyl-2-(3-fluoro-phenylamino)-pyrimidin-4-ylamino]-propyl}-amide] | 100 to 1000 nM |

Results, then the molecule that gave them:

| IC50 | Structure (SMILES) |
| --- | --- |
| < 100 nM | O=C(NCCCNc1nc(Nc2cccc(F)c2)ncc1C1CC1)c1cncs1 [Example 11, Thiazole-5-carboxylic acid {3-[5-cyclopropyl-2-(3-fluoro-phenylamino)-pyrimidin-4-ylamino]-propyl}-amide] |
| 100 to 1000 nM | Cc1ccc(C(=O)NCCCNc2nc(Nc3cccc(F)c3)ncc2C2CC2)s1 [Example 12, 5-Methyl-thiophene-2-carboxylic acid {3-[5-cyclopropyl-2-(3-fluoro-phenylamino)-pyrimidin-4-ylamino]-propyl}-amide] |
| < 100 nM | O=C(NCCCNc1nc(Nc2cccc(F)c2)ncc1C1CC1)c1nccs1 [Example 20, Thiazole-2-carboxylic acid {3-[5-cyclopropyl-2-(3-fluoro-phenylamino)-pyrimidin-4-ylamino]-propyl}-amide] |
| 100 to 1000 nM | O=C(NCCCNc1nc(Nc2cccc(F)c2)ncc1C1CC1)c1ccc(Cl)s1 [Example 21, 5-Chloro-thiophene-2-carboxylic acid {3-[5-cyclopropyl-2-(3-fluoro-phenylamino)-pyrimidin-4-ylamino]-propyl}-amide] |
| 100 to 1000 nM | O=C(NCCCNc1nc(Nc2cccc(F)c2)ncc1C1CC1)c1cccs1 [Example 26, Thiophene-2-carboxylic acid {3-[5-cyclopropyl-2-(3-fluoro-phenylamino)-pyrimidin-4-ylamino]-propyl}-amide] |
| 100 to 1000 nM | O=C(NCCCNc1nc(Nc2cccc(C(F)(F)F)c2)ncc1C1CC1)c1cccs1 [Example 27, Thiophene-2-carboxylic acid {3-[5-cyclopropyl-2-(3-trifluoromethyl-phenylamino)-pyrimidin-4-ylamino]-propyl}-amide] |
| < 100 nM | CC(=O)Nc1ccc(Nc2ncc(C3CC3)c(NCCCNC(=O)c3cccs3)n2)cc1 [Example 28, Thiophene-2-carboxylic acid {3-[2-(4-acetylamino-phenylamino)-5-cyclopropyl-pyrimidin-4-ylamino]-propyl}-amide. Hydrochloride salt] |
| 1000 to 10000 nM | O=C(NCCCNc1nc(Nc2cccc(O)c2)ncc1C1CC1)c1cccs1 [Example 29, Thiophene-2-carboxylic acid {3-[5-cyclopropyl-2-(3-hydroxy-phenylamino)-pyrimidin-4-ylamino]-propyl}-amide Trifluoroacetic acid salt] |
| 1000 to 10000 nM | Cc1ccc(Nc2ncc(C3CC3)c(NCCCNC(=O)c3cccs3)n2)cn1 [Example 30, Thiophene-2-carboxylic acid {3-[5-cyclopropyl-2-(6-methyl-pyridin-3-ylamino)-pyrimidin-4-ylamino]-propyl}-amide] |
| 1000 to 10000 nM | CC(C)(C)OC(=O)Nc1cccc(Nc2ncc(C3CC3)c(NCCCNC(=O)c3cccs3)n2)c1 [Example 31, [3-(5-Cyclopropyl-4-{3-[(thiophene-2-carbonyl)-amino]-propylamino}-pyrimidin-2-ylamino)-phenyl]-carbamic acid tert-butyl ester] |
| < 100 nM | CS(=O)(=O)Nc1cccc(Nc2ncc(C3CC3)c(NCCCNC(=O)c3cccs3)n2)c1 [Example 32, Thiophene-2-carboxylic acid {3-[5-cyclopropyl-2-(3-methanesulfonylamino-phenylamino)-pyrimidin-4-ylamino]-propyl}-amide trifluoroacetic acid salt] |
| 100 to 1000 nM | COC(=O)c1cccc(Nc2ncc(C3CC3)c(NCCCNC(=O)c3cccs3)n2)c1 [Example 33, 3-(5-Cyclopropyl-4-{3-[(thiophene-2-carbonyl)-amino]-propylamino}-pyrimidin-2-ylamino)-benzoic acid methyl ester trifluoroacetic acid salt] |
| 100 to 1000 nM | O=C(O)c1cccc(Nc2ncc(C3CC3)c(NCCCNC(=O)c3cccs3)n2)c1 [Example 34, 3-(5-Cyclopropyl-4-{3-[(thiophene-2-carbonyl)-amino]-propylamino}-pyrimidin-2-ylamino)-benzoic acid trifluoroacetic acid salt] |
| 100 to 1000 nM | O=C(NCCCNc1nc(Nc2cccc(OC(F)(F)F)c2)ncc1C1CC1)c1cccs1 [Example 35, Thiophene-2-carboxylic acid {3-[5-cyclopropyl-2-(3-trifluoromethoxy-phenylamino)-pyrimidin-4-ylamino]-propyl}-amide trifluoroacetic acid salt] |
